Experiments:
Dipeptidyl peptidase 1 [1] = target: T1, Dipeptidyl peptidase 1 (Homo sapiens, UniProt P53634); assay: Inhibition of Cathepsin C in human THP-1 cells using H-Gly-Phe-AFC as substrate pretreated for 1 hr followed by substrate addition and incubated for 60 mins by microplate reader assay; format: cell-based
Dipeptidyl peptidase 1 [2] = target: T1, Dipeptidyl peptidase 1; assay: Inhibition of human recombinant Cathepsin C using H-Gly-Arg-AMC as substrate pretreated for 30 mins followed by substrate addition and incubated for 60 mins by microplate reader assay
Dipeptidyl peptidase 1 [3] = target: T1, Dipeptidyl peptidase 1; assay: Inhibition of Cathepsin C in human U-937 cells using H-Gly-Phe-AFC as substrate pretreated for 1 hr followed by substrate addition and incubated for 60 mins by microplate reader assay; format: cell-based
Cathepsin B = Cathepsin B (Homo sapiens, UniProt P07858); assay: Inhibition of human recombinant Cathepsin B using Z-Leu-Arg-AMC as substrate pretreated for 60 mins followed by substrate addition and incubated for 30 mins by microplate reader assay

T1 sequence (P53634 25-134 limits assumed): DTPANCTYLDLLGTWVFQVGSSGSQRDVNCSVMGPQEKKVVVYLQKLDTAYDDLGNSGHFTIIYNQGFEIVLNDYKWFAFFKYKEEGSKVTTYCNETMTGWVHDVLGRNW
T1 sequence (P53634 231-394 limits assumed): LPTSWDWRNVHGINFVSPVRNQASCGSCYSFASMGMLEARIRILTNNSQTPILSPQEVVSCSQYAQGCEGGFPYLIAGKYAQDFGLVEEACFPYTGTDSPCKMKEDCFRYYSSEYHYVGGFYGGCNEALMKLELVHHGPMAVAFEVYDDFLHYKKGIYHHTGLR
T1 sequence (P53634 395-463 limits assumed): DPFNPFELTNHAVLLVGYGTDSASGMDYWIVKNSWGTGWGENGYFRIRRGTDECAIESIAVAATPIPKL

SMILES	IC50 (Dipeptidyl peptidase 1 [1])	IC50 (Dipeptidyl peptidase 1 [2])	IC50 (Dipeptidyl peptidase 1 [3])	IC50 (Cathepsin B)
FC(F)(F)c1cccc(Nc2nc(Nc3cnc(-c4ccsc4)cn3)ncc2Cl)c1	> 5000 nM	> 5000 nM	> 5000 nM	–
FC(F)(F)c1cccc(Nc2nc(Nc3cccc(-c4ccsc4)c3)ncc2Cl)c1	203 nM	65.6 nM	178 nM	> 5000 nM
FC(F)(F)c1ccc(CNc2nc(Nc3ccc(-c4ccsc4)cn3)ncc2Cl)cc1	89.8 nM	69.4 nM	92.2 nM	–
FC(F)(F)c1cccc(Nc2nc(Nc3ccc(-c4ccsc4)cn3)ncc2-c2cccc(Cl)c2)c1	> 5000 nM	> 5000 nM	> 5000 nM	–
Fc1ccc(Nc2nc(Nc3ccc(-c4ccsc4)cn3)ncc2Cl)cc1C(F)(F)F	170 nM	142 nM	200 nM	–
FC(F)(F)c1cccc(Nc2nc(Nc3ccc(-c4cccs4)cn3)ncc2Cl)c1	129 nM	128 nM	396 nM	–
FC(F)(F)Oc1ccc(Nc2nc(Nc3ccc(-c4ccsc4)cn3)ncc2Cl)cc1	110 nM	92.4 nM	154 nM	–
FC(F)(F)c1cccc(Nc2nc(Nc3ccc(-c4ccsc4)nn3)ncc2Cl)c1	89.5 nM	90.6 nM	181 nM	–
FC(F)(F)c1cccc(Nc2nc(Nc3ccc(-c4ccco4)cn3)ncc2Cl)c1	> 5000 nM	> 5000 nM	> 5000 nM	–
NC(=O)c1cccc(-c2cnc(Nc3ccc(-c4ccsc4)cn3)nc2Nc2cccc(C(F)(F)F)c2)c1	> 5000 nM	> 5000 nM	> 5000 nM	–
CC(=O)Nc1cccc(-c2cnc(Nc3ccc(-c4ccsc4)cn3)nc2Nc2cccc(C(F)(F)F)c2)c1	> 5000 nM	> 5000 nM	> 5000 nM	–
FC(F)(F)c1cccc(Nc2nc(Nc3ccc(-c4ccsc4)cc3)ncc2Cl)c1	> 5000 nM	> 5000 nM	> 5000 nM	–
Nc1cccc(Nc2nc(Nc3ccc(-c4ccsc4)cn3)ncc2Cl)c1	156 nM	132 nM	127 nM	–
CC(=O)c1cccc(-c2cnc(Nc3ccc(-c4ccsc4)cn3)nc2Nc2cccc(C(F)(F)F)c2)c1	308 nM	156 nM	228 nM	–
Clc1cnc(Nc2ccc(-c3ccsc3)cn2)nc1Nc1ccccn1	141 nM	102 nM	155 nM	–
FC(F)(F)c1cccc(Nc2nc(Nc3ccc(-c4ccsc4)cn3)ncc2-c2ccncc2)c1	> 5000 nM	> 5000 nM	> 5000 nM	–
CN1CCN(c2ccc(-c3cnc(Nc4ccc(-c5ccsc5)cn4)nc3Nc3cccc(C(F)(F)F)c3)cc2)CC1	> 5000 nM	> 5000 nM	> 5000 nM	–
CS(=O)(=O)c1ccc(-c2cnc(Nc3ccc(-c4ccsc4)cn3)nc2Nc2cccc(C(F)(F)F)c2)cc1	> 5000 nM	> 5000 nM	> 5000 nM	–
Cn1cc(-c2cnc(Nc3ccc(-c4ccsc4)cn3)nc2Nc2cccc(C(F)(F)F)c2)cn1	> 3000 nM	248 nM	416 nM	–

Now from value to compound:

IC50 (Dipeptidyl peptidase 1 [1])	IC50 (Dipeptidyl peptidase 1 [2])	IC50 (Dipeptidyl peptidase 1 [3])	IC50 (Cathepsin B)	SMILES
260 nM	77.9 nM	155 nM	–	FC(F)(F)c1cccc(Nc2nc(Nc3cc(-c4ccsc4)ccn3)ncc2Cl)c1
> 5000 nM	> 5000 nM	> 5000 nM	–	FC(F)(F)c1cccc(Nc2nc(Nc3ccc(-c4ccsc4)cn3)ncc2-c2ccoc2)c1
> 5000 nM	> 5000 nM	> 5000 nM	–	CN1CC=C(c2cnc(Nc3ccc(-c4ccsc4)cn3)nc2Nc2cccc(C(F)(F)F)c2)CC1
> 5000 nM	> 5000 nM	> 5000 nM	–	Nc1ccc(-c2cnc(Nc3ccc(-c4ccsc4)cn3)nc2Nc2cccc(C(F)(F)F)c2)cc1
159 nM	99.8 nM	174 nM	–	Fc1ccc(Nc2nc(Nc3ccc(-c4ccsc4)cn3)ncc2Cl)cc1F
> 5000 nM	> 5000 nM	> 5000 nM	–	CN1CCN(Cc2ccc(-c3cnc(Nc4ccc(-c5ccsc5)cn4)nc3Nc3cccc(C(F)(F)F)c3)cc2)CC1
203 nM	98.6 nM	180 nM	–	FC(F)(F)c1cccc(Nc2nc(Nc3ccc(-c4ccsc4)cn3)ncc2Br)c1
> 5000 nM	> 5000 nM	> 5000 nM	–	FC(F)(F)c1cccc(Nc2nc(Nc3ncc(-c4ccsc4)cn3)ncc2Cl)c1
63.9 nM	76.4 nM	99.9 nM	–	CC(=O)Nc1ccc(Nc2nc(Nc3ccc(-c4ccsc4)cn3)ncc2Cl)cc1
357 nM	133 nM	285 nM	–	NC(=O)c1ccc(-c2cnc(Nc3ccc(-c4ccsc4)cn3)nc2Nc2cccc(C(F)(F)F)c2)cc1
180 nM	252 nM	246 nM	–	FC(F)(F)Oc1cccc(Nc2nc(Nc3ccc(-c4ccsc4)cn3)ncc2Cl)c1
102 nM	61.8 nM	86.5 nM	–	CC(=O)Nc1ccc(-c2cnc(Nc3ccc(-c4ccsc4)cn3)nc2Nc2cccc(C(F)(F)F)c2)cc1
288 nM	216 nM	356 nM	–	FC(F)(F)c1cccc(Nc2nc(Nc3ccc(-c4ccsc4)cn3)ncc2-c2ccc(Cl)cc2)c1
184 nM	105 nM	150 nM	–	FC(F)(F)c1ccc(Nc2nc(Nc3ccc(-c4ccsc4)cn3)ncc2Cl)cc1
105 nM	128 nM	134 nM	–	Fc1ccc(Nc2nc(Nc3ccc(-c4ccsc4)cn3)ncc2Cl)cc1
111 nM	57 nM	89.5 nM	> 5000 nM	Nc1ccc(Nc2nc(Nc3ccc(-c4ccsc4)cn3)ncc2Cl)cc1
160 nM	103 nM	216 nM	–	FC(F)(F)c1cccc(Nc2nc(Nc3ccc(-c4ccsc4)nc3)ncc2Cl)c1
120 nM	91.5 nM	169 nM	–	Clc1cnc(Nc2ccc(-c3ccsc3)cn2)nc1NC1CCNCC1
197 nM	152 nM	276 nM	–	O=[N+]([O-])c1cc(-c2ccsc2)cnc1Nc1ncc(Cl)c(Nc2cccc(C(F)(F)F)c2)n1
> 5000 nM	> 5000 nM	> 5000 nM	–	FC(F)(F)c1cccc(Nc2nc(Nc3ccc(-c4ccsc4)cn3)ncc2-c2ccccc2)c1

— ChEMBL document CHEMBL5154871, “Non-peptidyl non-covalent cathepsin C inhibitoEEr bearing a unique thiophene-substituted pyridine: Design, structure-activity relationship and anti-inflammatory activity in vivo” (Eur J Med Chem, 2022)
